Laboratory results from ChEMBL document CHEMBL2163233, “3-Oxoisoindoline-1-carboxamides: potent, state-dependent blockers of voltage-gated sodium channel Na(V)1.7 with efficacy in rat pain models” (J Med Chem, 2012).
≈ marks a conversion by molar mass, not a printed value.

Experiments:
in vitro [1] = settings: rat, microsomes, CLH
in vitro [2] = settings: human, microsomes, CLH
cells = settings: Homo sapiens, HEK293
in vivo [3] = settings: Sprague-Dawley, rat, po, 10 umol/kg
in vivo [4] = settings: Sprague-Dawley, rat, po, 10 umol/kg; remark: listed apart in the source
in vitro [5] = settings: Sprague-Dawley, rat, plasma
in vivo [6] = settings: Sprague-Dawley, rat, iv, 3 umol/kg
in vivo [7] = settings: Sprague-Dawley, rat, iv, 3 umol/kg; remark: listed apart in the source
in vivo [8] = settings: Sprague-Dawley, rat, po, 10 umol/kg; remark: listed apart in the source
in vivo [9] = settings: Sprague-Dawley, rat, po, 10 umol/kg; remark: listed apart in the source
in vivo [10] = settings: Sprague-Dawley, rat, po, 10 umol/kg; remark: listed apart in the source
in vivo [11] = settings: Sprague-Dawley, rat, iv, 3 umol/kg; remark: listed apart in the source
in vivo [12] = settings: Sprague-Dawley, rat, iv, 3 umol/kg; remark: listed apart in the source
in vitro [13] = settings: human, Caco-2

| Compound | solubility at 4 h (physchem) [µM] | microsomal CLint (in vitro [1]) [µL/min/mg] | microsomal CLint (in vitro [2]) [µL/min/mg] | also measured |
| --- | --- | --- | --- | --- |
| O=C(NCc1ccc(OC(F)(F)F)cc1)C1c2ccccc2C(=O)N1CC(F)(F)c1ccccn1 (centres undefined) | 2 (≈ 0.983 µg/mL) | 30 | 57 | – |
| COc1cccc2c1C(=O)N(CCc1ccccn1)C2C(=O)NCc1ccc(OC(F)(F)F)cc1 (centres undefined) | 6 (≈ 2.91 µg/mL) | < 10 | 50 | – |
| O=C(NCc1ccc(OCC(F)(F)F)cc1)C1c2ccccc2C(=O)N1CCc1ccccn1 (centres undefined) | 42 (≈ 19.7 µg/mL) | – | – | – |
| O=C(NCc1ccc(OC(F)(F)F)cc1)C1c2ccccc2C(=O)N1CCN1CCOCC1 (centres undefined) | 200 (≈ 92.7 µg/mL) | < 10 | 49 | – |
| CC(NC(=O)C1c2ccccc2C(=O)N1CCc1ccccn1)c1ccc(OCC(F)(F)F)cc1 (centres undefined) | 34 (≈ 16.4 µg/mL) | 49 | 204 | – |
| O=C(NCc1ccc(OC(F)(F)F)cc1)C1c2cccc(O)c2C(=O)N1CCc1ncc(F)cn1 (centres undefined) | 2 (≈ 0.981 µg/mL) | 36 | 42 | – |
| O=C(NCc1ccc(OC(F)(F)F)cc1)C1c2ccccc2C(=O)N1CCc1cccnc1 (centres undefined) | 69 (≈ 31.4 µg/mL) | 28 | 100 | – |
| N#C[C@H]1CC[C@H](N2C(=O)c3ccccc3C2C(=O)NCc2ccc(OC(F)(F)F)cc2)CC1 (some centres undefined) | 200 (≈ 91.5 µg/mL) | 11 | < 10 | – |
| O=C(NCc1ccc(OC(F)(F)F)cc1)C1c2ccccc2C(=O)N1C1CCC(F)(F)CC1 (single isomer, unassigned) | – | – | – | IC50 (cells): > 10 µM |
| O=C(NCc1ccc(OC(F)(F)F)cc1)C1c2ccccc2C(=O)N1CC1CC(F)(F)C1 (centres undefined) | < 1 | 38 | 25 | – |
| O=C(NCc1ccc(OC(F)F)nc1)C1c2ccccc2C(=O)N1CCc1ccccn1 (centres undefined) | 32 (≈ 14 µg/mL) | < 10 | 33 | – |
| O=C(NCc1ccc(C(F)(F)F)cc1)C1c2ccccc2C(=O)N1CCc1ccccn1 (centres undefined) | 7 (≈ 3.08 µg/mL) | 58 | 180 | – |
| O=C(NCc1ccc(OC(F)(F)F)cc1)C1c2ccccc2C(=O)N1C[C@@H]1CCCO1 (some centres undefined) | 28 (≈ 12.2 µg/mL) | 28 | 50 | – |
| CC(C)(C)OC(=O)N1CC(N2C(=O)c3ccccc3C2C(=O)NCc2ccc(OC(F)(F)F)cc2)C1 (centres undefined) | 30 (≈ 15.2 µg/mL) | < 10 | 43 | – |
| COc1cccc2c1C(C(=O)NCc1ccc(OC(F)(F)F)cc1)N(CCc1ccccn1)C2=O (centres undefined) | 4 (≈ 1.94 µg/mL) | 37 | 97 | – |
| O=C(NCc1ccc(OCC(F)(F)F)nc1)C1c2ccccc2C(=O)N1CCc1ccccn1 (centres undefined) | 88 (≈ 41.4 µg/mL) | < 10 | 40 | – |
| O=C(NCc1ccc(F)c(OC(F)(F)F)c1)C1c2ccccc2C(=O)N1CCc1ncc(F)cn1 (centres undefined) | 27 (≈ 13.3 µg/mL) | 110 | 220 | – |
| O=C(NCc1ccc(OC(F)(F)F)cc1)C1c2ccccc2C(=O)N1C1CC(F)(F)C1 (centres undefined) | 4 (≈ 1.76 µg/mL) | < 10 | 15 | – |
| CC(C)(CN1C(=O)c2ccccc2C1C(=O)NCc1ccc(OC(F)(F)F)cc1)c1ccccn1 (centres undefined) | 6 (≈ 2.9 µg/mL) | < 10 | 40 | – |
| N#CCCN1C(=O)c2ccccc2C1C(=O)NCc1ccc(OC(F)(F)F)cc1 (centres undefined) | 45 (≈ 18.2 µg/mL) | 16 | 11 | – |
| CC(Cc1ccccn1)N1C(=O)c2ccccc2C1C(=O)NCc1ccc(OC(F)(F)F)cc1 (centres undefined) | 28 (≈ 13.1 µg/mL) | < 10 | 82 | – |
| CN(C)CCC=C1c2ccccc2CCc2ccccc21 [AMITRIPTYLINE] | – | – | – | IC50 (cells): 12 µM |
| O=C(NCc1ccc(OC(F)(F)F)cc1)C1c2c(F)cccc2C(=O)N1CCc1ccccn1 (centres undefined) | 17 (≈ 8.05 µg/mL) | 10 | 150 | – |
| O=C(NCc1ccccc1Br)C1c2ccccc2C(=O)N1CCc1ccccn1 (centres undefined) | 280 (≈ 126 µg/mL) | 20 | 300 | – |

| Compound | solubility at 4 h (physchem) [µM] | microsomal CLint (in vitro [1]) [µL/min/mg] | microsomal CLint (in vitro [2]) [µL/min/mg] | also measured |
| --- | --- | --- | --- | --- |
| O=C(NCc1ccc(OC(F)(F)F)cc1)C1c2c(O)cccc2C(=O)N1CCc1ccccn1 (centres undefined) | < 1 | 23 | 26 | – |
| CC(C)(C)OC(=O)N1CCC(N2C(=O)c3ccccc3C2C(=O)NCc2ccc(OC(F)(F)F)cc2)CC1 (centres undefined) | 7 (≈ 3.73 µg/mL) | 89 | 170 | – |
| O=C(NCc1ccc(OC(F)(F)F)cc1)C1c2ccccc2C(=O)N1CCC1CCOCC1 (centres undefined) | 20 (≈ 9.25 µg/mL) | < 10 | 71 | – |
| O=C(NCc1ccc(OC(F)(F)F)cc1)C1c2ccccc2C(=O)N1CCc1ccncc1 (centres undefined) | 61 (≈ 27.8 µg/mL) | 20 | 170 | – |
| O=C(NCc1ccc(OC(F)(F)F)cc1)C1c2ccccc2C(=O)N1CCC(F)(F)F (centres undefined) | 11 (≈ 4.91 µg/mL) | < 10 | < 10 | – |
| CCCCNc1ccc(C(=O)OCCN(C)C)cc1 [TETRACAINE] | – | – | – | IC50 (cells): 33 µM |
| O=C(NCc1ccc(OC(F)(F)F)cc1)C1c2cccc(F)c2C(=O)N1CCc1ccccn1 (centres undefined) | 26 (≈ 12.3 µg/mL) | 16 | 170 | – |
| Cc1ccc(NC(=O)C2c3ccccc3C(=O)N2CCc2ccccn2)cc1C (centres undefined) | 34 (≈ 13.1 µg/mL) | – | – | – |
| O=C(NCc1ccc(OC(F)(F)F)cc1)C1c2ccccc2C(=O)N1CCc1ncc(F)cn1 (centres undefined) | 25 (≈ 11.9 µg/mL) | < 10 | 53 | AUC (in vivo [3]): 2.1 µM·h; bioavailability (in vivo [4]): 44%; fraction unbound (in vitro [5]): 0.092; AUC (in vivo [6]): 1.4 µM·h; clearance (in vivo [7]): 37 mL/min/kg; Cmax (in vivo [8]): 800 nM; half-life (in vivo [9]): 138 min; Tmax (in vivo [10]): 18 min; Vd (in vivo [11]): 1.1 L/kg; half-life (in vivo [12]): 24 min |
| O=C(NCc1ccc(OC(F)(F)F)cc1)C1c2ccccc2C(=O)N1CCc1ncccn1 (centres undefined) | 310 (≈ 141 µg/mL) | < 10 | 33 | – |
| O=C(NCc1ccc(OC(F)(F)F)cc1)C1c2ccccc2C(=O)N1CCOCC(F)(F)F (centres undefined) | 3 (≈ 1.43 µg/mL) | < 10 | 44 | – |
| CC1(C(=O)NCc2ccc(OC(F)(F)F)cc2)c2ccccc2C(=O)N1CCc1ccccn1 (racemic) | – | 57 | > 500 | – |
| O=C(NCc1cccc(OC(F)(F)F)c1)C1c2ccccc2C(=O)N1CCc1ccccn1 (centres undefined) | 19 (≈ 8.65 µg/mL) | 86 | 370 | – |
| O=C(NCc1cccc(OC(F)(F)F)c1)C1c2ccccc2C(=O)N1CCc1ncc(F)cn1 (centres undefined) | 61 (≈ 28.9 µg/mL) | 28 | 180 | Papp (in vitro [13]): 50 ×10⁻⁶ cm/s; AUC (in vivo [3]): 0.4 µM·h; bioavailability (in vivo [4]): 6%; fraction unbound (in vitro [5]): 0.18; AUC (in vivo [6]): 2.1 µM·h; clearance (in vivo [7]): 29 mL/min/kg; Cmax (in vivo [8]): 90 nM; half-life (in vivo [9]): 486 min; Tmax (in vivo [10]): 24 min; Vd (in vivo [11]): 0.7 L/kg; half-life (in vivo [12]): 24 min |
| O=C(NCc1ccc(Br)cc1)C1c2ccccc2C(=O)N1CCc1ccccn1 (centres undefined) | 57 (≈ 25.7 µg/mL) | 31 | 120 | – |
| O=C(NCc1ccc(F)c(C(F)(F)F)c1)C1c2ccccc2C(=O)N1CCc1ncc(F)cn1 (centres undefined) | 14 (≈ 6.67 µg/mL) | < 10 | < 10 | Papp (in vitro [13]): 39 ×10⁻⁶ cm/s; AUC (in vivo [3]): 0.2 µM·h; bioavailability (in vivo [4]): 4%; fraction unbound (in vitro [5]): 0.13; AUC (in vivo [6]): 1.6 µM·h; clearance (in vivo [7]): 32 mL/min/kg; Cmax (in vivo [8]): 100 nM; half-life (in vivo [9]): 72 min; IC50 (cells): 33 µM; Tmax (in vivo [10]): 18 min; Vd (in vivo [11]): 0.9 L/kg; half-life (in vivo [12]): 24 min |
| CC(C)(Cc1ccccn1)N1C(=O)c2ccccc2C1C(=O)NCc1ccc(OC(F)(F)F)cc1 (centres undefined) | 13 (≈ 6.29 µg/mL) | 67 | 340 | – |
| O=C(NCc1ccc(OC(F)(F)F)cc1)C1c2cccc(O)c2C(=O)N1CCc1ccccn1 (centres undefined) | 15 (≈ 7.07 µg/mL) | 10 | 59 | – |
| Cc1cccc2c1C(C(=O)NCc1ccc(OC(F)(F)F)cc1)N(CCc1ccccn1)C2=O (centres undefined) | 1 (≈ 0.469 µg/mL) | 59 | 190 | – |
| O=C(NCc1ccc(CC(F)(F)F)cc1)C1c2ccccc2C(=O)N1CCc1ccccn1 (centres undefined) | 120 (≈ 54.4 µg/mL) | 42 | 190 | – |
| O=C(NCc1ccc(OC(F)(F)F)cc1)C1c2ccccc2C(=O)N1CCCc1ccccn1 (centres undefined) | 6 (≈ 2.82 µg/mL) | 31 | > 500 | – |
| O=C(NCc1ccc(OC(F)(F)F)cc1)C1c2ccccc2C(=O)N1CCOc1ccccn1 (centres undefined) | < 1 | 39 | 190 | – |
| O=C(NCc1cccc(Br)c1)C1c2ccccc2C(=O)N1CCc1ccccn1 (centres undefined) | 6 (≈ 2.7 µg/mL) | 47 | 310 | – |
| COc1ccc(CNC(=O)C2c3ccccc3C(=O)N2CCc2ccccn2)cc1 (centres undefined) | 360 (≈ 145 µg/mL) | – | – | – |
